Source: US9895367B2, “Formulation comprising phenylaminopyrimidine derivative as active agent” (NATCO PHARMA LIMITED, priority 2011, dated 2018)

Key:
[1] = tested on: CAL-27 (Tongue squamous cell carcinoma) cell line; experiment: MTT assay on CAL-27 cell line; assay type: cell-based; details: Homo sapiens, CAL-27, 1.75×10^4 cells/mL, 72 hours
[2] = tested on: PC3M (Prostate Cancer) Cell lines; experiment: MTT assay on PC3M cell lines; assay type: cell-based; details: Homo sapiens, PC-3M, 0.312×10^5 cells/mL, 72 hours
[3] = Bioavailability study in rats (oral, LCMS of blood); assay type: in vivo; details: wistar albino male rats, fasted overnight, average
Excerpt: Four rats (wistar albino, male, weighing 120-180 grams) were divided into two sets of study (two rats in each set) and fasted overnight prior to dosing, but were permitted water ad libitum. The sample preparation and subsequent dilution was made as per protocol with a vehicle, followed by the administration of the sample through oral route. Blood samples were collected by puncturing retero-orbital sinus of the anaesthetized rats (with anesthetic ether) at definite intervals of 15, 30, 60, 120, 240, 360, 480 and 720 minutes post administration. The blood collection was done in prefilled heparin centrifugation tubes.
The blood samples collected were subjected for the subsequent centrifugation and followed by analytical procedure with the use of LCMS technique. The areas under the blood drug concentration versus time curves are calculated by the trapezoidal rule. The analysis was done with respect to AUC (area under curve), Cmax (maximum concentration) and Tmax (time of maximum concentration).

[4] = Solubility of NRC-AN-019 drug substance; assay type: physicochemical
Excerpt: NRC-AN-019 is a pale yellow to light brown coloured crystalline to amorphous powder. Its molecular formula is C25H17F6N5O and its relative molecular mass is 517.44. […] The drug substance is soluble in dimethyl formamide and dimethyl sulfoxide.

rats = experiment: Toxicological study, maximum tolerated oral dose in rats; assay type: in vivo

Q: Which results are given for `Cc1ccc(NC(=O)c2cc(C(F)(F)F)cc(C(F)(F)F)c2)cc1Nc1nccc(-c2cccnc2)n1` [NRC-AN-019, (3,5-bis-trifluoromethyl)-N-[4-methyl-3-(4-pyridin-3-yl-pyrimidin-2-ylamino)-pheny-1]-benzamide]?
A: IC50 [1]: 1440 nM; IC50 [2]: 4.38 µM; Cmax ([3]; rat): 35.2 ng/mL; Tmax ([3]; rat): 8.7 h; AUC ([3]; trapezoidal rule): 430.0 ng·h/mL; solubility in aqueous buffer of pH 1.2 ([4]; aqueous buffer pH 1.2): very slightly soluble; solubility in dimethyl formamide ([4]; dimethyl formamide): soluble; solubility in dimethyl sulfoxide ([4]; dimethyl sulfoxide): soluble; solubility in neutral/alkaline aqueous buffers ([4]; neutral/alkaline aqueous buffers): insoluble; solubility in water ([4]; water): practically insoluble; maximum tolerated oral dose (rats): > 5000 mg/kg bodyweight
